Assay results reported in patent US8426406B2, “Glucocorticoid receptor agonist comprising 2,2,4-trimethyl-6-phenyl-1,2-dihydroquinoline derivatives having substituted oxy group” (Santen Pharmaceutical Co., Ltd., priority 2008, dated 2013).

Columns and labels:
[1] = tested on: choroidal neovascularization (CNV) model in rats; test: Evaluation test for inhibitory effect of choroidal neovascularization (laser induced CNV model in rats); assay type: in vivo; conditions: Brown Norway rats, 1% (w/v) suspension eye drops four times a day or 20 mg/mL subconjunctival injection (route not given), vs vehicle, mean of 7-8 eyes in 4 rats
Experimental: The choroidal neovascularization (CNV) model in rats is known as one of the popular methods for evaluating the CNV inhibitory effect of drugs. This method is reported in Graefe's Arch. Cli. Exp. Ophthalmol., 235, 313-319 (1997). According to this method, the CNV examinations were performed to evaluate the CNV inhibitory effect of test compounds by comparing the incidence rates of CNV in vehicle group (control group) with test compound-treated groups.
For eye drop administration, a 1% (w/v) test compound suspension was prepared by adding 0.5% polysorbate 80/saline to the test compound. For subconjunctival injection, a 20 mg/mL test compound suspension was prepared by adding 0.5% hydrogenated castor oil/saline to the test compound.
1) Brown Norway male rats (7-8 weeks, 140-240 g) were anesthetized with intramuscular injection (1 mL/kg) of the mixed solution (5% ketamine HCl: 2% xylazine HCl=7:1).
2) After mydriasis using tropicamide phenylephrine hydrochloride eye drops (trade name Mydrin P), laser photocoagulation of bruch's membrane in rats was performed with krypton laser photocoagulation machine. Laser irradiation was performed at 8-9 points per eye avoiding thick retinal blood vessels in ocular fundus and focusing on the depth of retina. The conditions were 100 μm spot size, 100 mW power, 0.1 second duration.
3) After laser photocoagulation, photographs of ocular fundus were taken and the laser photocoagulation (laser irradiation) points were confirmed.
1) In case of eye drops administration, a test compound suspension was administrated four times a day from laser irradiation day (the 1st day) to the 8th day. In case of subconjunctival injection, a 50 μL test compound suspension was injected into conjunctivae just after laser irradiation.
2) In vehicle group (control group), 0.5% polysorbate 80/saline or 0.5% hydrogenated castor oil/saline was used instead of a test compound suspension. And the test was performed according to the method 1).
1) 7 days after laser irradiation, 0.1 mL of 10% fluorescein was injected into rat tail vein and fluorescein angiography was performed.
2) When the fluorescent leakage was not detected in the fluorescent angiography, the spot was judged to be a negative spot. When the fluorescent leakage was detected, the spot was judged to be a positive spot. When the fluorescent leakage was detected as a little leakage, two spots were counted as one positive spot.
3) The neovascular incidence rate was calculated according to the equation 1. According to the equation 2, the ratio of neovascular incidence rate in test compound group to vehicle group was calculated. Neovascular incidence rate(%)=(Positive spots/all spots)×100 (Equation 1) Angiogenic inhibition ratio in test compound group(%)=(1−Ax/Ao)×100 (Equation 2)
Ao: Neovascular incidence rate in vehicle group (control group)
Ax: Neovascular incidence rate in test compound group

[2] = tested on: corneal disorder model in rats; test: Test for therapeutic effects on corneal disorder (corneal disorder model associated with dry eye); assay type: in vivo; conditions: male SD rats, exorbital lacrimal gland removed; 0.03% (W/V) ophthalmic suspension instilled 6 times a day for 14 days; fluorescein staining score; 8 eyes in 4 animals
Experimental: In order to evaluate the improvement effect of corneal disorder with dry eye of the present compounds, using male SD rats, corneal disorder models were produced according to the method of Fujihara et al. (Invest. Ophthalmol. Vis. Sci. 42 (1): 96-100 (2001)). After the production of the corneal disorder models, the improvement ratio of the corneal disorder was assessed according to the method of Murakami et al. (Journal of the eye 21 (1): 87-90 (2004)).
A 0.03% (W/V) test compound ophthalmic suspension was prepared by adding vehicle containing polysorbate 80 and the general additives to test compound.
1) Male SD rats were systemically anesthetized by an administration of Somnopentyl. Subsequently the exorbital lacrimal gland of each rat was removed and a corneal damage was induced over a period of 2 months.
2) The test compound ophthalmic suspension was instilled into both eyes 6 times a day for 14 days. In a control group, vehicle was instilled in the same way.
3) Fourteen days after the start of instillation, the damaged parts of the cornea were stained with fluorescein. For each of the upper, middle and lower parts of the cornea, the degree of fluorescein staining was evaluated by scoring according to the criteria shown below and the mean value of the total scores for each of the above-mentioned parts was calculated. The score range in each divided section is 0 to 3 and the minimum score unit is 0.5. 0.5 was provided as an intermediate value between each score 0, 1, 2, 3.
1: Scattered staining (each punctate staining being separated)
2: Moderate staining (a part of punctate staining being adjacent)
3: Heavy staining (each punctate staining being adjacent) Improvement ratio of test compound instillation group(%)=(Ao−Ax)/(Ao−An)×100 (Calculation Equation)
Ao: the mean value of corneal disorder score in vehicle instilled (control) group
Ax: the mean value of corneal disorder score in test compound instilled group
An: the mean value of corneal disorder score in normal rat group.

CCCS(=O)(=O)Oc1ccc(-c2ccc3c(c2CNc2ccccc2OC)C(C)=CC(C)(C)N3)c(OC)c1 [Compound 4-18, 5-(2-Methoxyphenylaminomethyl)-6-(2-methoxy-4-propylsulfonyloxyphenyl)-2,2,4-trimethyl-1,2-dihydroquinoline]
Angiogenic inhibition ratio (%) [1]: 35%
Improvement ratio of corneal disorder (%) [2]: 56%

COc1cc(OC(=O)c2ccco2)ccc1-c1ccc2c(c1COc1cc(F)ccc1C)C(C)=CC(C)(C)N2 [Compound 1-13, 5-(5-Fluoro-2-methylphenoxymethyl)-6-[4-(furan-2-ylcarbonyloxy)-2-methoxyphenyl]-2,2,4-trimethyl-1,2-dihydroquinoline]
Angiogenic inhibition ratio (%) [1]: 38%
Improvement ratio of corneal disorder (%) [2]: 61%

COc1cc(OC(=O)c2cccnc2)ccc1-c1ccc2c(c1COc1cc([N+](=O)[O-])ccc1C)C(C)=CC(C)(C)N2 [Compound 1-72, 6-[2-Methoxy-4-(pyridin-3-ylcarbonyloxy)phenyl]-5-(2-methyl-5-nitrophenoxymethyl)-2,2,4-trimethyl-1,2-dihydroquinoline]
Angiogenic inhibition ratio (%) [1]: 28%
Improvement ratio of corneal disorder (%) [2]: 67%

COc1cc(OC(=O)c2ccsc2)ccc1-c1ccc2c(c1COc1cc(F)ccc1C)C(C)=CC(C)(C)N2 [Compound 1-12, 5-(5-Fluoro-2-methylphenoxymethyl)-6-[2-methoxy-4-(thiophen-3-ylcarbonyloxy)phenyl]-2,2,4-trimethyl-1,2-dihydroquinoline]
Angiogenic inhibition ratio (%) [1]: 37%
Improvement ratio of corneal disorder (%) [2]: 69%
